The target of data set [1] is T1, Haspin-kd (human, kinase domain, amino acids 470–798) (Homo sapiens, UniProt Q8TF76).
T1 construct: Haspin-kd (human, kinase domain, amino acids 470–798, recombinant, expressed in bacteria); host or cells: bacteria
T1 sequence (Q8TF76 470-798): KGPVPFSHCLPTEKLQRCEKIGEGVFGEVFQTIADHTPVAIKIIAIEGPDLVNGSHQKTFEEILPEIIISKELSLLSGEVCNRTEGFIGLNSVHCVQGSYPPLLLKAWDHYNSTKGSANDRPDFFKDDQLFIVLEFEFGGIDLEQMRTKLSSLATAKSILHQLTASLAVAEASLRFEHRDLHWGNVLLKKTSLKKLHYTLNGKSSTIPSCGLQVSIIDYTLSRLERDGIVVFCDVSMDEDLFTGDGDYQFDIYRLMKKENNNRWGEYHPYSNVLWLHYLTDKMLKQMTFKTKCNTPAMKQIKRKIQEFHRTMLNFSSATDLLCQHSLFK
Briefly: ADP-Glo kinase inhibition assay, Haspin. As to conditions: for IC50: 10 μM ATP, duplicate; for remaining activity at 1 µM: read-out: Haspin % residual activity at 1 μM; for remaining activity at 10 µM: read-out: Haspin % residual activity at 10 μM; for inhibition at 1 µM: read-out: Haspin inhibition at 1 μM, 1 μM compound, % inhibition. The data set is classed as biochemical. On the procedure: (§1) Kinase enzymatic activities were assayed in 384 well plates using the ADP-GloTM assay kit (Promega, Madison, WI, USA) according to the manufacturer’s guidance. Briefly, the reactions were carried out in a final volume of 6 μL for 30 min at 30 °C in an appropriate kinase buffer (10 mM MgCl2, 1 mM EGTA, 1 mM DTT, 25 mM Tris-HCl pH 7.5, 50 μg/mL heparin), with either protein or peptide as substrate in the presence of 10 μM ATP (40 mM Tris pH 7.5, 20 mM MgCl2 and 0.1 mg/mL of BSA). Afterward, 6 μL of ADP-GloTM Kinase Reagent was added to stop the kinase reaction. After an incubation time of 50 min at room temperature (RT), 12 μL of Kinase Detection Reagent was added for 1 h at RT. The transmitted signal was measured using the Envision (Perkin Elmer, Waltham, MA, USA) microplate luminometer and expressed in relative light unit (RLU). In order to determine the half maximal inhibitory concentration (IC50), the assays were performed in duplicate in the absence or presence of increasing doses of the tested compounds. GraphPad Prism6 software (GraphPad Software, San Diego, CA, USA) was used to fit dose–response curves and to determine the IC50 values. Kinase activities are expressed in the percentage of maximal activity, i.e., measured in the absence of an inhibitor. Peptide substrates were obtained from Proteogenix (Schiltigheim, France).
Background: ADP-Glo turns the ADP formed in a reaction into a luminescent signal.

The target of data set [2] is T2, MmCLK1 (Mus musculus, UniProt P22518).
T2 construct: host or cells: bacteria
In words: ADP-Glo kinase inhibition assay, CLK1. The class given is biochemical. As to conditions: for remaining activity at 1 µM: read-out: CLK1 % residual activity at 1 μM; for remaining activity at 10 µM: read-out: CLK1 % residual activity at 10 μM. On the procedure: as §1
(§2) The following protein kinases were analyzed in this study: CDK5/p25 (human, recombinant, expressed in bacteria) was assayed with 0.8 μg/μL of histone H1 as substrate; CDK9/CyclinT (human, recombinant, expressed by baculovirus in Sf9 insect cells) were assayed with 0.27 μg/μL of the following peptide: […], as substrate; CK1ε (human, recombinant, expressed by baculovirus in Sf9 insect cells) was assayed with 0.022 μg/μL of the following peptide: […]pAYSITA (“Sp” stands for phosphorylated serine) as CK1-specific substrate; GSK3β (human, recombinant, expressed by baculovirus in Sf9 insect cells) were assayed with 0.010 μg/μL of GS-1 peptide, a GSK-3-selective substrate ([…]pEDEEE); Haspin-kd (human, kinase domain, amino acids 470–798, recombinant, expressed in bacteria) was assayed with 0.007 μg/μL of histone H3 (1–21) peptide ([…]) as substrate; Pim-1 (human proto-oncogene, recombinant, expressed in bacteria) was assayed with 0.8 μg/μL of histone H1 as substrate; MmCLK1 (from Mus musculus, recombinant, expressed in bacteria) was assayed with 0.027 μg/μL of the following peptide: […] as substrate; RnDYRK1A-kd (Rattus norvegicus, amino acids 1–499 including the kinase domain, recombinant, expressed in bacteria, DNA vector kindly provided by Dr. W. Becker, Aachen, Germany) was assayed with 0.033 μg/μL of the following peptide: […] as substrate.

Data set [3] addresses T3, RnDYRK1A-kd (Rattus norvegicus, UniProt Q63470).
T3 construct: RnDYRK1A-kd (Rattus norvegicus, amino acids 1–499 including the kinase domain, recombinant, expressed in bacteria); made in house; host or cells: bacteria
Briefly: ADP-Glo kinase inhibition assay, DYRK1A. The data set is classed as biochemical. The conditions noted are these: for remaining activity at 1 µM: read-out: DYRK1A % residual activity at 1 μM; for remaining activity at 10 µM: read-out: DYRK1A % residual activity at 10 μM. The method, then:
as §1, §2

The target of data set [4] is T4, CDK9/CyclinT (Homo sapiens, UniProt P50750).
T4 construct: host or cells: Sf9 insect cells (baculovirus)
Briefly: ADP-Glo kinase inhibition assay, CDK9/CyclinT. As to conditions: for remaining activity at 1 µM: read-out: CDK9 % residual activity at 1 μM; for remaining activity at 10 µM: read-out: CDK9 % residual activity at 10 μM. The data set is classed as biochemical. The method, then:
as §1, §2

In data set [5] the target is T5, GSK3β (Homo sapiens, UniProt P49841).
T5 construct: host or cells: Sf9 insect cells (baculovirus)
In words: ADP-Glo kinase inhibition assay, GSK3β. The conditions noted are these: for remaining activity at 1 µM: read-out: GSK3 % residual activity at 1 μM; for remaining activity at 10 µM: read-out: GSK3 % residual activity at 10 μM. The data set is classed as biochemical. The method, then:
as §1, §2

For data set [6], the target named is T6, CK1ε (Homo sapiens, UniProt P49674).
T6 construct: host or cells: Sf9 insect cells (baculovirus)
In words: ADP-Glo kinase inhibition assay, CK1ε. The conditions noted are these: 10 μM ATP, duplicate; for remaining activity at 1 µM: 1 μM compound, read-out: CK1 % residual activity at 1 μM; for remaining activity at 10 µM: 10 μM compound, read-out: CK1 % residual activity at 10 μM. The class given is biochemical. On the procedure:
as §1, §2

Data set [7] addresses T7, CDK5/p25 (Homo sapiens, UniProt Q00535).
T7 construct: host or cells: bacteria
In words: ADP-Glo kinase inhibition assay, CDK5/p25. The class given is biochemical. The conditions noted are these: for remaining activity at 1 µM: read-out: CDK5 % residual activity at 1 μM; for remaining activity at 10 µM: read-out: CDK5 % residual activity at 10 μM. On the procedure:
as §1, §2

In data set [8] the target is T8, Pim-1 (Homo sapiens, UniProt P11309).
T8 construct: host or cells: bacteria
Briefly: ADP-Glo kinase inhibition assay, Pim-1. The class given is biochemical. The conditions noted are these: 10 μM ATP, duplicate; for remaining activity at 1 µM: 1 μM compound, read-out: PIM1 % residual activity at 1 μM; for remaining activity at 10 µM: 10 μM compound, read-out: PIM1 % residual activity at 10 μM. The method, then: as §1, §2

Like-named read-outs stand apart in the source and are kept apart here. Some results are limits rather than exact numbers.

T5 sequence (P49841 whole entry): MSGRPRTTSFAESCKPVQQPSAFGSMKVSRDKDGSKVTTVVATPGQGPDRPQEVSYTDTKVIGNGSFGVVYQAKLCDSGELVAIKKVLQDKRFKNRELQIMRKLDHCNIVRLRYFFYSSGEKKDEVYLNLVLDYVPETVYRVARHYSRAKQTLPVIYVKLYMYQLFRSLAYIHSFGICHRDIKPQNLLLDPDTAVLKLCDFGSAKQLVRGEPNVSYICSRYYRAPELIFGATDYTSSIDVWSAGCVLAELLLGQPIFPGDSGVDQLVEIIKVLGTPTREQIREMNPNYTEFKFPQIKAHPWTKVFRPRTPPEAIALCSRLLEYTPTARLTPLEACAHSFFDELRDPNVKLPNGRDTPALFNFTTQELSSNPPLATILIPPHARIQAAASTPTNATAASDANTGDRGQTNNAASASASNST
T2 sequence (P22518 whole entry): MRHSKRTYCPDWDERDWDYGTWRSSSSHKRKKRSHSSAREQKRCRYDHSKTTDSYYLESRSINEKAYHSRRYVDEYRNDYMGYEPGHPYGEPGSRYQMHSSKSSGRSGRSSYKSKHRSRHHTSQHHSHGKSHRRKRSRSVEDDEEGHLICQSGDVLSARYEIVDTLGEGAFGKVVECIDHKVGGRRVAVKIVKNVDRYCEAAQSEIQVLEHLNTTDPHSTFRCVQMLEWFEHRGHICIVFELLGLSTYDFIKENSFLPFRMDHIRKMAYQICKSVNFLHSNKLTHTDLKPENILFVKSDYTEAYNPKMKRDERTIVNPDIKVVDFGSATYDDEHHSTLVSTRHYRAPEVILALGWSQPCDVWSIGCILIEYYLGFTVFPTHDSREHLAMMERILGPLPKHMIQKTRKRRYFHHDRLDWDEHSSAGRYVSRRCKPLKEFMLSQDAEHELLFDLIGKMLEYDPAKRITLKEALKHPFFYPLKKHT
T6 sequence (P49674 whole entry): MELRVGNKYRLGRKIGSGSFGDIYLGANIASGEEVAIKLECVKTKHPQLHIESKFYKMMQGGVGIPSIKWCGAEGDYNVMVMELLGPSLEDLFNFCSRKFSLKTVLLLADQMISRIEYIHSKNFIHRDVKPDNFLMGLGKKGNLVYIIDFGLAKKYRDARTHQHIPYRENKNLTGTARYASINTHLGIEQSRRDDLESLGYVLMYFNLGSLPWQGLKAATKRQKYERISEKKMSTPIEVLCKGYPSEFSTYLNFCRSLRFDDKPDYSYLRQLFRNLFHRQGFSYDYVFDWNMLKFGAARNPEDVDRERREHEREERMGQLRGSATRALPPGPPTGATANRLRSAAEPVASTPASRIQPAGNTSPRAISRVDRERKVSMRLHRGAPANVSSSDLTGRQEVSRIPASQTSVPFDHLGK
T8 sequence (P11309 whole entry): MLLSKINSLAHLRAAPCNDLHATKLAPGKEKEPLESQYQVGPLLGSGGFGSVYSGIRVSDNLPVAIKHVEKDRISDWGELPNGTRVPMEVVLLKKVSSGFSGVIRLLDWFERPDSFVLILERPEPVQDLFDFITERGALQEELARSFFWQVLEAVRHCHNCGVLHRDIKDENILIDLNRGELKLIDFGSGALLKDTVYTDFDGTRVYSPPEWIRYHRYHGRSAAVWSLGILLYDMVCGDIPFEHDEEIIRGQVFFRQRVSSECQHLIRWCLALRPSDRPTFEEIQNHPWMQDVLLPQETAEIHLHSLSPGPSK
T7 sequence (Q00535 whole entry): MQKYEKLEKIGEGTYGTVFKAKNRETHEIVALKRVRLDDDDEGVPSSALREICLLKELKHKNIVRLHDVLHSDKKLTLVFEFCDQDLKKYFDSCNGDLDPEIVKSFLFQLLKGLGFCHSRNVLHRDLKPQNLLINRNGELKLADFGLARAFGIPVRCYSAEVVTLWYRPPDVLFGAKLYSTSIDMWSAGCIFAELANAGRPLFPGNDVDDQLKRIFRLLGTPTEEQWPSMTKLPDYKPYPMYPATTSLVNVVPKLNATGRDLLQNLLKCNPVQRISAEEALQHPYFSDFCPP
T7 sequence (Q15078 99-307, further chain): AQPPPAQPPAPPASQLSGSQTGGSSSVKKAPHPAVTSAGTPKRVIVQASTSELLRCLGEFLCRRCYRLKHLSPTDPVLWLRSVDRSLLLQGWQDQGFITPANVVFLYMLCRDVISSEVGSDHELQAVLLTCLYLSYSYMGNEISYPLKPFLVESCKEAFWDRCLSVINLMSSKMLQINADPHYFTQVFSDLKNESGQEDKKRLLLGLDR
T4 sequence (O60563 whole entry): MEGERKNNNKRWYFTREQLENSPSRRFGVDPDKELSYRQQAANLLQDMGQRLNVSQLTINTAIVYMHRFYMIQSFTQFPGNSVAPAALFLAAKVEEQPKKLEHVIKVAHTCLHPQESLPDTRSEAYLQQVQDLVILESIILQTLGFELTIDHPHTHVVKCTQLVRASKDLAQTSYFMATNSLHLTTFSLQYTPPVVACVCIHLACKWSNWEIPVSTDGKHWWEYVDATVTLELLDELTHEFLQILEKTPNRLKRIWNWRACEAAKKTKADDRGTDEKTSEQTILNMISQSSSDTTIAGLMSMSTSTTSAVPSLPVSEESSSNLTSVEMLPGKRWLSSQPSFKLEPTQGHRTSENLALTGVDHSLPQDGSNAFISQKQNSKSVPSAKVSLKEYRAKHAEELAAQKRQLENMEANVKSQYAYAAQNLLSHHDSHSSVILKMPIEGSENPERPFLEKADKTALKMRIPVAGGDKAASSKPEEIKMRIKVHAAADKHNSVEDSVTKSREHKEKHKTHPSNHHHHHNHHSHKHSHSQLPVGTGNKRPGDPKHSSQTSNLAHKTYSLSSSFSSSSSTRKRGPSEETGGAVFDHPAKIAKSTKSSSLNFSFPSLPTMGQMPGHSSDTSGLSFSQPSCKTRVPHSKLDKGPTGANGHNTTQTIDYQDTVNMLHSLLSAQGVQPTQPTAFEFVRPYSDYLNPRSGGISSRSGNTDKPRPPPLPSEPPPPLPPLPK
T4 sequence (P50750 whole entry): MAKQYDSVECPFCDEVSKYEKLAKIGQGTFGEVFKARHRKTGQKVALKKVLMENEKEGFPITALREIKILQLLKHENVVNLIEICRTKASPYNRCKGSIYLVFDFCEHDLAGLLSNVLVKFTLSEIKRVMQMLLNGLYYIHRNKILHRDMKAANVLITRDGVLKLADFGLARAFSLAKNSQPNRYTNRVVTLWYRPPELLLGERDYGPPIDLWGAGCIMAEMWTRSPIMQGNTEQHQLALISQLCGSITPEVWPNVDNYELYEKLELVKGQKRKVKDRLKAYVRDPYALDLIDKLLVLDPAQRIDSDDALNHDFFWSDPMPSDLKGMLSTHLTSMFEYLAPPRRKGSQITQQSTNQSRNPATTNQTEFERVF

With `CS(=O)(=O)O.O=[N+]([O-])c1c2ccncc2cc2cn[nH]c12`, the melting point was above 250 °C.
With `O=[N+]([O-])c1c2ccncc2cc2cn[nH]c12` [1a’], the IC50 in data set [1] is 154 nM; in [2] (assumed on the basis of % of inhibition at 1 μM (less than 50%), read-out: CLK1 IC50 (assumed)), above 1000 nM; in [3] (assumed on the basis of % of inhibition at 1 μM (less than 50%), read-out: DYRK1A IC50 (assumed)), above 1000 nM. Besides, the remaining activity at 1 µM was 32% in data set [1]; 90% in data set [2]; 68% in data set [3]; 86% in data set [4]; 99% in [5]; 100% in data set [6]. For the same molecule, the remaining activity at 1 µM in [7] was 91%; in data set [8], 90%. The remaining activity at 10 µM stood at 23% in data set [1]; 30% in data set [2]; 25% in [3]; 48% in data set [4]; 50% in data set [5]; 64% in data set [6]. Besides, the remaining activity at 10 µM in data set [7] was found to be 62%; in [8], 85%.
Regarding `CCCc1c2cnccc2c([N+](=O)[O-])c2c1cnn2CC` [Compound 3c, 1-Ethyl-9-nitro-4-propyl-1H-pyrazolo[3,4-g]isoquinoline], the IC50 amounted to 497 nM in data set [1]; 363 nM in [2] (10 μM ATP, duplicate, read-out: CLK1 IC50); 322 nM in data set [4] (10 μM ATP, duplicate); 218 nM in [5] (10 μM ATP, duplicate, read-out: GSK3 IC50). The remaining activity at 1 µM amounted to 25% in [1]; 23% in data set [2]; 95% in [3]; 18% in data set [4]; 12% in data set [5]; 81% in data set [6]. Moreover, the remaining activity at 1 µM in data set [7] stood at 54%; in data set [8] it was 86%. For the same molecule, the remaining activity at 10 µM is 17% in data set [1]; 4% in [2]; 41% in [3]; 4% in data set [4]; 5% in data set [5]; 35% in data set [6]. Further, the remaining activity at 10 µM came to 10% in [7] and 88% in data set [8].
Turning to `CCc1c2cnccc2c([N+](=O)[O-])c2c1cnn2CC` [Compound 3b, 1,4-Diethyl-9-nitro-1H-pyrazolo[3,4-g]isoquinoline], the remaining activity at 1 µM worked out at 63% in data set [1]; 19% in [2]; 100% in data set [3]; 25% in data set [4]; 28% in data set [5]; 82% in data set [6]. Besides, the figures for the remaining activity at 1 µM in data set [7] and in data set [8] were 33% and 100%, respectively. In addition, the remaining activity at 10 µM in [1] came to 10%; in data set [2] it was 0%; in data set [3], 9%; in data set [4] it was 0%; in data set [5], 3%; in data set [6], 25%. The values for the remaining activity at 10 µM in data set [7] and in data set [8] were 16% and 89%, respectively. Further, the inhibition at 1 µM in data set [1] is at most 50%.
As for `CCn1ncc2cc3cncc(Br)c3c([N+](=O)[O-])c21` [Compound 4, 8-Bromo-1-ethyl-9-nitro-1H-pyrazolo[3,4-g]isoquinoline], the remaining activity at 1 µM in [1] turned out to be 77%; in data set [2], 42%; in data set [3], 52%; in data set [4], 59%; in data set [5] it was 88%; in data set [6], 100%. In addition, the remaining activity at 1 µM in [7] came to 92%; in data set [8], 77%. Moreover, the remaining activity at 10 µM in data set [1] was 23%; in data set [2], 18%; in data set [3], 25%; in data set [4], 18%; in [5], 80%; in data set [6], 80%. For the same molecule, the remaining activity at 10 µM amounted to 32% in data set [7] and 54% in data set [8]. Further, in [1], the inhibition at 1 µM came out at 23%.

Broadly, the melting point is the temperature, or range, at which the solid turns liquid. In general, IC50 refers to the concentration that gives 50% inhibition. As usually defined, the inhibition is the drop in the measured response relative to a control, in per cent.

For the origin of these results see publication PMC9457941, “Synthesis and Kinase Inhibitory Potencies of Pyrazolo[3,4-g]isoquinolines” (Molecules, 2022).
